According to patent US20230174642A1, “AFFINITY-MATURATED ANTI-ASIC1a ANTIBODIES” (SHANGHAITECH UNIVERSITY, priority 2019, published 2023):
Blank lines part the entries; values can stand above or below the molecule they belong to.

Tests used:
ASIC1a = molecular target: T1, ASIC1a (Homo sapiens, UniProt P78348); experiment: Patch clamp whole-cell recording of acid-induced hASIC1a currents; assay type: cell-based; settings: 30 μM amiloride, positive control; pH 7.4 to pH 6.0; read-out: inhibition of the acid-induced ASIC1a currents
T1 construct: expressed in transfected cells
T1 sequence (P78348 1-528): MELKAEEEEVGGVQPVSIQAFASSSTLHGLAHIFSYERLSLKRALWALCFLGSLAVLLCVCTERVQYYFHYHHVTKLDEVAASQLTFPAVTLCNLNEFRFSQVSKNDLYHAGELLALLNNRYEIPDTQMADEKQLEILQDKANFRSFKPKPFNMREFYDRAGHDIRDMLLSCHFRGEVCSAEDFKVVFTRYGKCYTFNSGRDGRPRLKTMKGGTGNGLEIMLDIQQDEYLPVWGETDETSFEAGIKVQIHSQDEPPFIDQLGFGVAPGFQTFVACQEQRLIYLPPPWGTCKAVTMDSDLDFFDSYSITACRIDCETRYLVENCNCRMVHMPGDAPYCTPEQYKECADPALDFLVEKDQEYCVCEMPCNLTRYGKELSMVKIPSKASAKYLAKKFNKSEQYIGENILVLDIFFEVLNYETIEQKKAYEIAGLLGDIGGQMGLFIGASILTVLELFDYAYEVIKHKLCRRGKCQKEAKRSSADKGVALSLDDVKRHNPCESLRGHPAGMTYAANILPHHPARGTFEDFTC
Protocol: FIGS. 4A-4E show the effect of affinity-matured ASC06-IgG1 derivative antibodies on the hASIC1a currents. Shown are the representative current traces recorded from single CHO-K1 cells stably expressing hASIC1a in the absence or presence of 100 nM ASC06-IgG1 (FIG. 4A) or affinity-matured ASC06-IgG1 versions ASC06-01-IgG1 (FIG. 4B), ASC06-02-IgG1 (FIG. 4C), ASC06-03-IgG1 (FIG. 4D), or ASC06-04-IgG1 (FIG. 4E). Amiloride (30 μM) was used as a positive control. “Wash” represents the recovery of the current after the treatment of 100 nM indicated antibody followed by 15 min infusion of washing solution.
Whether the affinity-matured ASC06-IgG1 derivative antibodies have an effect on the acid-induced, hASIC1a-mediated electrical current in cells was tested. An hASIC1a overexpressing stable cell line was used as a model for these studies. Extracellular pH was decreased from pH 7.4 to pH 6.0 and the amplitudes of the hASIC1a-mediated inward currents were recorded in the whole-cell recording mode in the presence of the affinity-matured ASC06-IgG1 derivative antibodies (FIGS. 4A-4E). The ASIC1a inhibitor amiloride (30 μM) was used as a positive control for the inhibition of ASIC1a currents.

[1] = molecular target: T2, hASIC1a on CHO-K1 cells stably expressing hASIC1a (human, UniProt P78348 1-528); experiment: cell-based or functional assay
T2 sequence (looked up): T1 sequence (P78348 1-528)

inhibition at 30 µM (ASIC1a): > 50%
Molecule: N=C(N)NC(=O)c1nc(Cl)c(N)nc1N [amiloride, reference compound]

IC50 for the inhibition of ASIC1a currents, FMP assay [1]: 31 nM
B1: ASC06-05-IgG1 (antibody, V domains shown)
VH: QVQLQQSGGGLVQPGGSLRLSCAASGFTFSSYAMSWVRQAPGKGLEWVSAISGSGGSTYYADSVKGRFTISRDNSKNTLYLQMNSLRAEDTAVYYCAKDSYFGRAKGSWGQGTLVTVSS
VL: QSALTQPASVSGSPGQSITISCTGTSSDVGAYNYVSWYQQQPGKAPKLMIYGVSNRPSGVSNRFSGSKSGNAASLTISGLQAEDEADYYCSSYTSSSTYVFGTGTKLTVLG
